Reference: ChEMBL document CHEMBL1201862, “PubChem BioAssay data set” (2004)
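In this assay, cells in 96-well plates receive the compound at five concentrations for 48 hours. Endpoints are linearly interpolated between the surrounding concentrations. GI50 marks 50% less growth.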 Active and inactive are the calls of the source. Cut-off read from the data, not from the text of the source: active = GI50 up to about 1.1 µM and inactive = higher.

Columns and labels:
Test in all cases: NCI-60 cell line screen, 48 h
[1] = tested on: 786-0
[2] = tested on: A549
[3] = tested on: ACHN
[4] = tested on: BT-549
[5] = tested on: CAKI-1
[6] = tested on: COLO 205
[7] = tested on: DU-145
[8] = tested on: EKVX
[9] = tested on: HCC 2998
[10] = tested on: HCT-116
[11] = tested on: HCT-15
[12] = tested on: HL-60
[13] = tested on: HOP-62
[14] = tested on: HT-29
[15] = tested on: Hs-578T
[16] = tested on: IGROV-1
[17] = tested on: K562
[18] = tested on: KM12
[19] = tested on: LOX IMVI
[20] = tested on: M14
[21] = tested on: MCF7
[22] = tested on: MDA-MB-231
[23] = tested on: MDA-MB-435
[24] = tested on: Malme-3M
[25] = tested on: NCI-H226
[26] = tested on: NCI-H23
[27] = tested on: NCI-H460
[28] = tested on: NCI-H522
[29] = tested on: NCI/ADR-RES
[30] = tested on: OVCAR-3
[31] = tested on: OVCAR-5
[32] = tested on: OVCAR-8
[33] = tested on: PC-3
[34] = tested on: RPMI-8226
[35] = tested on: RXF 393
[36] = tested on: SF-268
[37] = tested on: SF-295
[38] = tested on: SF-539
[39] = tested on: SK-MEL-28
[40] = tested on: SK-MEL-2
[41] = tested on: SK-MEL-5
[42] = tested on: SN12C
[43] = tested on: SNB-19
[44] = tested on: SR
[45] = tested on: SW-620
[46] = tested on: TK-10
[47] = tested on: U-251
[48] = tested on: UACC-257
[49] = tested on: UACC-62
[50] = tested on: UO-31
[51] = tested on: A498
[52] = tested on: CCRF-CEM
[53] = tested on: HOP-92
[54] = tested on: MDA-N
[55] = tested on: MOLT-4
[56] = tested on: OVCAR-4
[57] = tested on: SK-OV-3
[58] = tested on: SNB-75

For CC(CO)(Nc1ccc([N+](=O)[O-])cc1[N+](=O)[O-])C(=O)O (configuration not stated), the GI50 [1] was 71 µM (inactive), the GI50 [2] was 38.3 µM (inactive) and the GI50 [3] was 18.7 µM (inactive). For the same molecule, the GI50 [4] was 29.5 µM (inactive), the GI50 [5] was 33.8 µM (inactive) and the GI50 [6] was 16.9 µM (inactive). For the same molecule, the GI50 [7] was 22.8 µM (inactive), the GI50 [8] was 29.2 µM (inactive) and the GI50 [9] was 22.4 µM (inactive). For the same molecule, the GI50 [10] was 63.2 µM (inactive), the GI50 [11] was 17.6 µM and the GI50 [12] was 17.6 µM (inactive). The GI50 [13] was 49.1 µM (inactive), the GI50 [14] was 16.7 µM (inactive) and the GI50 [15] was 17.3 µM (inactive). The GI50 [16] was 20 µM (inactive), the GI50 [17] was 19.1 µM (inactive) and the GI50 [18] was 43.5 µM (inactive). The GI50 [19] was 22.5 µM (inactive), the GI50 [20] was 80.2 µM (inactive) and the GI50 [21] was 17.5 µM (inactive). For the same molecule, the GI50 [22] was 79.8 µM (inactive), the GI50 [23] was 21.6 µM (inactive) and the GI50 [24] was 18.7 µM (inactive). The GI50 [25] was > 100 µM (inactive), the GI50 [26] was 27.8 µM (inactive) and the GI50 [27] was 15.5 µM (inactive). The GI50 [28] was 18.7 µM (inactive), the GI50 [29] was 35.5 µM (inactive) and the GI50 [30] was 22.2 µM (inactive). The GI50 [31] was 32.6 µM (inactive), the GI50 [32] was 34.8 µM (inactive) and the GI50 [33] was 64.6 µM (inactive). The GI50 [34] was 29.3 µM (inactive), the GI50 [35] was 12.2 µM (inactive) and the GI50 [36] was 19.3 µM (inactive). The GI50 [37] was 68.9 µM (inactive), the GI50 [38] was 34 µM (inactive) and the GI50 [39] was 22.1 µM (inactive). For the same molecule, the GI50 [40] was 20.7 µM (inactive), the GI50 [41] was 20.5 µM (inactive) and the GI50 [42] was 20.7 µM (inactive). The GI50 [43] was 43 µM (inactive), the GI50 [44] was 12.1 µM (inactive) and the GI50 [45] was 16.7 µM (inactive). The GI50 [46] was 36.1 µM (inactive), the GI50 [47] was 22.9 µM (inactive) and the GI50 [48] was 24.9 µM (inactive). For the same molecule, the GI50 [49] was 33.7 µM (inactive) and the GI50 [50] was 15.9 µM (inactive).

With COc1cc(NS(C)(=O)=O)ccc1N1Cc2c[nH]c3ccc4nc(C)cc1c4c23 the GI50 [1] was 20.7 µM (inactive), the GI50 [51] was > 100 µM (inactive) and the GI50 [2] was 62.5 µM (inactive). The GI50 [3] was > 100 µM (inactive), the GI50 [4] was > 100 µM (inactive) and the GI50 [5] was 26.4 µM (inactive). For the same molecule, the GI50 [52] was 52.1 µM (inactive), the GI50 [6] was > 100 µM (inactive) and the GI50 [7] was > 100 µM (inactive). The GI50 [8] was 67.5 µM (inactive), the GI50 [9] was > 100 µM (inactive) and the GI50 [10] was 62.8 µM (inactive). For the same molecule, the GI50 [11] was greater than 100 µM, the GI50 [12] was 91.4 µM (inactive) and the GI50 [13] was 25.9 µM (inactive). The GI50 [53] was 24.9 µM (inactive), the GI50 [14] was > 100 µM (inactive) and the GI50 [15] was 40.6 µM (inactive). For the same molecule, the GI50 [16] was 33.3 µM (inactive), the GI50 [17] was 26.5 µM (inactive) and the GI50 [18] was > 100 µM (inactive). The GI50 [19] was > 100 µM (inactive), the GI50 [20] was > 100 µM (inactive) and the GI50 [21] was 52.6 µM (inactive). The GI50 [22] was 64 µM (inactive), the GI50 [23] was 17.5 µM (inactive) and the GI50 [54] was 19.6 µM (inactive). For the same molecule, the GI50 [55] was 48.5 µM (inactive), the GI50 [25] was 38.8 µM (inactive) and the GI50 [26] was 88.9 µM (inactive). For the same molecule, the GI50 [27] was 86.1 µM (inactive), the GI50 [28] was 26.2 µM (inactive) and the GI50 [29] was > 100 µM (inactive). The GI50 [30] was 31 µM (inactive), the GI50 [56] was 49.9 µM (inactive) and the GI50 [31] was > 100 µM (inactive). The GI50 [32] was 33 µM (inactive), the GI50 [33] was > 100 µM (inactive) and the GI50 [34] was 31.5 µM (inactive). For the same molecule, the GI50 [35] was 32 µM (inactive), the GI50 [36] was 22.7 µM (inactive) and the GI50 [37] was 54.8 µM (inactive). The GI50 [39] was 35.5 µM (inactive), the GI50 [40] was 74 µM (inactive) and the GI50 [41] was 97.7 µM (inactive). For the same molecule, the GI50 [57] was 41.6 µM (inactive), the GI50 [43] was 18.7 µM (inactive) and the GI50 [58] was 19.7 µM (inactive). For the same molecule, the GI50 [45] was > 100 µM (inactive), the GI50 [46] was > 100 µM (inactive) and the GI50 [47] was 32.3 µM (inactive). For the same molecule, the GI50 [48] was > 100 µM (inactive), the GI50 [49] was 72.3 µM (inactive) and the GI50 [50] was > 100 µM (inactive).

With Cc1sc(Cc2ccccc2)nc1-c1ccc(N)cc1 the GI50 [51] was 29.4 µM (inactive), the GI50 [2] was 30.6 µM (inactive) and the GI50 [3] was 31.2 µM (inactive). The GI50 [4] was 28.2 µM (inactive), the GI50 [5] was 24 µM (inactive) and the GI50 [52] was 15.9 µM (inactive). The GI50 [6] was 23.1 µM (inactive), the GI50 [8] was 31.4 µM (inactive) and the GI50 [9] was 19.1 µM (inactive). For the same molecule, the GI50 [10] was 20.2 µM (inactive), the GI50 [11] was 19.8 µM and the GI50 [12] was 26.2 µM (inactive). The GI50 [53] was 13.8 µM (inactive), the GI50 [14] was 22.6 µM (inactive) and the GI50 [15] was 20.2 µM (inactive). For the same molecule, the GI50 [16] was 27.9 µM (inactive), the GI50 [17] was 20.7 µM (inactive) and the GI50 [18] was 17 µM (inactive). For the same molecule, the GI50 [19] was 15.2 µM (inactive), the GI50 [20] was 20.6 µM (inactive) and the GI50 [21] was 19.5 µM (inactive). The GI50 [22] was 26.1 µM (inactive), the GI50 [23] was 17.7 µM (inactive) and the GI50 [55] was 13.8 µM (inactive). For the same molecule, the GI50 [24] was 31.3 µM (inactive), the GI50 [26] was 32.9 µM (inactive) and the GI50 [27] was 23 µM (inactive). The GI50 [28] was 16 µM (inactive), the GI50 [29] was 27.7 µM (inactive) and the GI50 [30] was 20.7 µM (inactive). For the same molecule, the GI50 [56] was 12.7 µM (inactive), the GI50 [31] was 32.5 µM (inactive) and the GI50 [32] was 31 µM (inactive). For the same molecule, the GI50 [33] was 29.9 µM (inactive), the GI50 [34] was 16.3 µM (inactive) and the GI50 [36] was 25 µM (inactive). For the same molecule, the GI50 [37] was 37.4 µM (inactive), the GI50 [39] was 30.9 µM (inactive) and the GI50 [40] was 17.3 µM (inactive). The GI50 [41] was 18 µM (inactive), the GI50 [42] was 21.1 µM (inactive) and the GI50 [43] was 48.4 µM (inactive). For the same molecule, the GI50 [45] was 23.7 µM (inactive), the GI50 [46] was 47.5 µM (inactive) and the GI50 [47] was 26.6 µM (inactive). The GI50 [48] was 30 µM (inactive), the GI50 [49] was 15.1 µM (inactive) and the GI50 [50] was 38.9 µM (inactive).
